Earlier results as cited in patent US7767228B2, “Pharmaceutical composition for oral application and method for preparing thereof” (Cum Pharma Consulting Anstalt, priority 2004, dated 2010).

solubility in water: very low
Structure (SMILES): O=C(C1CCCCC1)N1CC(=O)N2CCc3ccccc3C2C1 (stereo not shown) [Praziquantel, praziquantel]
